Measurements: patent US5254565A, “Quinoline derivatives, their production and use” (priority 1988, dated 1993)
Like-named read-outs stand apart in the source and are kept apart here.

Molecular target: T1, Acyl-CoA : cholesterol acyltransferase (ACAT) (Rattus norvegicus, UniProt Q7TQM4)
T1 construct: from the mucosal microsome fraction of the small intestine of male, 6-week old Sprague-Dawley rats; from tissue; host or cells: mucosal microsome fraction of the small intestine of male 6-week old Sprague-Dawley rats, fasted for 20 hours
T1 sequence (Q7TQM4 1-524): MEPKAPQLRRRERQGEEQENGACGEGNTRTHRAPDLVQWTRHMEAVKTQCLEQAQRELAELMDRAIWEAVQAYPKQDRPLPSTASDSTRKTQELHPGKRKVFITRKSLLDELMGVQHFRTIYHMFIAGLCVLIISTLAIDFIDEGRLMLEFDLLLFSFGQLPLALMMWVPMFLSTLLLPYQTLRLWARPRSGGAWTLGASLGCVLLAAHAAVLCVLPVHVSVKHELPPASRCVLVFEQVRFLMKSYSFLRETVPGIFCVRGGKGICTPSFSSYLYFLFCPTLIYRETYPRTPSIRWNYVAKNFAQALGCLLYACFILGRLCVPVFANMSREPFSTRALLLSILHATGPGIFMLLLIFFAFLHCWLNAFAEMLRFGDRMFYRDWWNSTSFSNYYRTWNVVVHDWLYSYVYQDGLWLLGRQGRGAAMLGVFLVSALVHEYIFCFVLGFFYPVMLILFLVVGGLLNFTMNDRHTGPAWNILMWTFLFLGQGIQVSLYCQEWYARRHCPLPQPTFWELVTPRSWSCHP
Assay: Acyl-CoA : cholesterol acyltransferase (ACAT) inhibitory activity: production of labeled cholesterol ester from [1-^14 C] oleoyl-CoA and endogenous cholesterol
Type: biochemical
Conditions: for inhibition at 1 µM: 10^-6 M test compound
Description: 1. Acyl-CoA : cholesterol acyltransferase (ACAT) inhibitory activity.
The enzyme ACAT was prepared by the method of Heider et al. described in Journal of Lipid Research, Vol. 24, page 1127 (1982), from the mucosal microsome fraction of the small intestine of male, 6-week old Sprague-Dawley rats which had been fasted for 20 hours.
ACAT activity was calculated by the method of Helgerud et al. described in Journal of Lipid Research, Vol. 22, page 271 (1981), namely, by measuring the amount of the labeled cholesterol ester produced from [1-^14 C] oleoyl-CoA and endogenous cholesterol.
Inhibition rates (%) of the production of the labeled cholesterol ester wherein 10^-6 M-10^-8 M of test compounds were added are shown as an index of ACAT inhibitory activity in Table 1.

| SMILES | inhibition at 1 µM (read-out: ACAT Inhibition Rate) | also measured |
| --- | --- | --- |
| O=C(Nc1ccc(Cl)cc1)Nc1cnc2ccc(Cl)cc2c1-c1ccccc1 [Compound B, 6-chloro-3-[3-(4-chlorophenyl)ureido]-4-phenylquinoline, reference compound] | 54.5% | ACAT inhibitory activity (in words): excellent ACAT inhibitory activities; ACAT inhibitory activity (in words) (listed as compound B): strong ACAT inhibitory activity |
| O=C(Nc1ccc(F)cc1F)Nc1cnc2ccc(Cl)cc2c1-c1ccccc1 [Example 1, 6-chloro-3-[3-(2,4-difluorophenyl)ureido]-4-phenylquinoline] | 88.3% | – |
| O=C(Nc1ccccc1F)Nc1cnc2ccc(Cl)cc2c1-c1ccccc1 [Example 4, 6-Chloro-3-[3-(2-fluorophenyl)ureido]-4-phenylquinoline] | 75% | – |
| O=C(Nc1ccc(F)cc1F)Nc1cnc2ccc(Br)cc2c1-c1ccccc1 [Example 11, 6-Bromo-3-[3-(2,4-difluorophenyl)ureido]-4-phenylquinoline] | 85.5% | – |
| Cc1ccc2ncc(NC(=O)Nc3ccc(F)cc3F)c(-c3ccccc3)c2c1 [Example 13, 3-[3-(2,4-Difluorophenyl)ureido]-6-methyl-4-phenylquinoline] | 84.5% | – |
| CCc1ccc2ncc(NC(=O)Nc3ccc(F)cc3F)c(-c3ccccc3)c2c1 [Example 14, 3-[3-(2,4-Difluorophenyl)ureido]-6-ethyl-4-phenylquinoline] | 90.1% | – |
| CC(C)c1ccc2ncc(NC(=O)Nc3ccc(F)cc3F)c(-c3ccccc3)c2c1 [Example 15, 3-[3-(2,4-Difluorophenyl)ureido]-6-isopropyl-4-phenylquinoline] | 91.6% | – |
| O=C(Nc1ccc(F)cc1F)Nc1cnc2ccc(C(F)(F)F)cc2c1-c1ccccc1 [Example 17, 3-[3-(2,4-Difluorophenyl)ureido]-4-phenyl-6-trifluoromethylquinoline] | 90.1% | – |
| COc1ccc2ncc(NC(=O)Nc3ccc(F)cc3F)c(-c3ccccc3)c2c1 [Example 18, 3-[3-(2,4-Difluorophenyl)ureido]-6-methoxy-4-phenylquinoline] | 85.9% | – |
| O=C(Nc1ccc(F)cc1F)Nc1cnc2ccccc2c1-c1ccccc1Cl [Example 21, 4-(2-Chlorophenyl)-3-[3-(2,4-difluorophenyl)ureido]quinoline] | 91.8% | – |
| O=C(Nc1ccc(F)cc1F)Nc1cnc2ccc(Cl)cc2c1-c1ccccc1F [Example 22, 6-Chloro-3-[3-(2,4-difluorophenyl)ureido]-4-(2-fluorophenyl)quinoline] | 96.8% | – |
| O=C(Nc1ccc(F)cc1F)Nc1cnc2ccc(Cl)cc2c1-c1cccc(Cl)c1 [Example 24, 6-Chloro-4-(3-chlorophenyl)-3-[3-(2,4-difluorophenyl)ureido]quinoline] | 88.5% | – |
| O=C(Nc1ccc(F)cc1F)Nc1cnc2ccc(Cl)cc2c1-c1ccc(Cl)cc1 [Example 25, 6-Chloro-4-(4-chlorophenyl)-3-[3-(2,4-difluorophenyl)ureido]quinoline] | 77% | – |
| Cc1ccc(-c2c(NC(=O)Nc3ccc(F)cc3F)cnc3ccc(Cl)cc23)cc1 [Example 26, 6-Chloro-3-[3-(2,4-difluorophenyl)ureido]-4-(4-methylpheynyl)quinoline] | 87.4% | – |
| Cc1ccccc1-c1c(NC(=O)Nc2ccc(F)cc2F)cnc2ccc(Cl)cc12 [Example 27, 6-Chloro-3-[3-(2,4-difluorophenyl)ureido]-4-(2-methylphenyl)quinoline] | 97.2% | – |
| COc1ccc(-c2c(NC(=O)Nc3ccc(F)cc3F)cnc3ccc(Cl)cc23)cc1 [Example 28, 6-Chloro-3-[3-(2,4-difluorophenyl)ureido]-4-(4-methoxyphenyl)quinoline] | 92.7% | – |
| COc1ccccc1-c1c(NC(=O)Nc2ccc(F)cc2F)cnc2ccc(Cl)cc12 [Example 29] | 98.2% | – |
| Cc1ccc2ncc(NC(=O)Nc3ccc(F)cc3F)c(-c3ccccc3C)c2c1 [Example 31, 3-[3-(2,4-Difluorophenyl)ureido]-6-methyl-4-(2-methylphenyl)quinoline] | 96.9% | – |
| CCc1ccc2ncc(NC(=O)Nc3ccc(F)cc3F)c(-c3ccccc3Cl)c2c1 [Example 33, 4-(2-Chlorophenyl)-3-[3-(2,4-difluorophenyl)ureido]-6-ethylquinoline] | 99.2% | – |

| SMILES | inhibition at 1 µM (read-out: ACAT Inhibition Rate) | also measured |
| --- | --- | --- |
| CC(C)c1ccc2ncc(NC(=O)Nc3ccc(F)cc3F)c(-c3ccccc3Cl)c2c1 [Example 34, 4-(2-Chlorophenyl)-3-[3-(2,4-difluorophenyl)ureido]-6-isopropylquinoline] | 99.3% | – |
| CCCCc1ccc2ncc(NC(=O)Nc3ccc(F)cc3F)c(-c3ccccc3Cl)c2c1 [Example 35, 6-Butyl-4-(2-chlorophenyl)-3-[3-(2,4-difluorophenyl)ureido]quinoline] | 97% | – |
| O=C(Nc1ccc(F)cc1F)Nc1cnc2ccc(F)cc2c1-c1ccccc1Cl [Example 36, 4-(2-Chlorophenyl)-3-[3-(2,4-difluorophenyl)ureido]-6-fluoroquinoline] | 95.6% | – |
| CSc1ccc2ncc(NC(=O)Nc3ccc(F)cc3F)c(-c3ccccc3)c2c1 [Example 37, 3-[3-(2,4-Difluorophenyl)ureido]-6-methylthio-4-phenylquinoline] | 87.8% | – |
| Cc1cc(Cl)cc2c(-c3ccccc3Cl)c(NC(=O)Nc3ccc(F)cc3F)cnc12 [Example 38, 6-Chloro-4-(2-chlorophenyl)-3-[3-(2,4-difluorophenyl)ureido]-8-methylquinoline] | 98.3% | – |
| Cc1cc(C)c2ncc(NC(=O)Nc3ccc(F)cc3F)c(-c3ccccc3C)c2c1 [Example 39, 3-[3-(2,4-Difluorophenyl)ureido]-6,8-dimethyl-4-(2-methylphenyl)quinoline] | 98.5% | inhibition at 0.01 µM (10^-8 M test compound, read-out: ACAT Inhibition Rate): 43.3% |
| O=C(Nc1cnc2ccc(Cl)cc2c1-c1ccccc1)Nc1c(F)cccc1F [Example 46, 6-chloro-3-[3-(2,6-difluorophenyl)ureido]-4-phenylquinoline] | 75.7% | – |
| O=C(Nc1ccc(Cl)cc1)Nc1cnc2ccc(Cl)cc2c1-c1ccccc1Cl [Example 50, 6-Chloro-4-(2-Chlorophenyl)-3-[3-(4-chlorophenyl)ureido]quinoline] | 96.8% | – |
| Cc1cc(C)c2ncc(NC(=O)Nc3ccc(Cl)cc3)c(-c3ccccc3Cl)c2c1 [Example 51, 4-(2-Chlorophenyl)-3-[3-(4-chlorophenyl)ureido]-6,8-dimethylquinoline] | 97.2% | – |
| CSc1ccccc1-c1c(NC(=O)Nc2ccc(F)cc2F)cnc2ccc(Cl)cc12 [Example 52, 6-Chloro-3-[3-(2,4-difluorophenyl)ureido]-4-(2-methylthiophenyl)quinoline] | 97.9% | – |
| O=C(Nc1ccc(F)cc1F)Nc1cnc2ccc(SC(F)F)cc2c1-c1ccccc1 [Example 53, 6-Difluoromethylthio-3-[3-(2,4-difluorophenyl)ureido]-4-phenylquinoline] | 85.7% | – |
| O=C(Nc1ccc(F)cc1F)Nc1cnc2ccc(OC(F)F)cc2c1-c1ccccc1 [Example 54, 6-Difluoromethoxy-3-[3-(2,4-difluorophenyl)ureido]-4 4-phenylquinoline] | 80.7% | – |
| Cc1cc(Cl)c2ncc(NC(=O)Nc3ccc(F)cc3F)c(-c3ccccc3Cl)c2c1 [Example 55, 8-Chloro-4-(2-chlorophenyl)-3-[3-(2,4-difluorophenyl)ureido]-6-methylquinoline] | 97.6% | – |
| Cc1ccccc1-c1c(NC(=O)Nc2ccc(F)c([N+](=O)[O-])c2)cnc2ccc(Cl)cc12 [Example 58, 6-Chloro-3-[3-(4-fluoro-3-nitrophenyl)ureido]-4-(2-methylphenyl)quinoline] | 88.5% | – |
| CSc1ccccc1-c1c(NC(=O)Nc2ccc(F)cc2F)cnc2ccc(C)cc12 [Example 59, 3-[3-(2,4-Difluorophenyl)ureido]-6-mehtyl-4-(2-mehtylthiophenyl)quinoline] | 97.5% | – |
| COc1ccc(-c2c(NC(=O)Nc3ccc(F)cc3F)cnc3ccc(Cl)cc23)cc1OC [Example 60, 6-Chloro-3-[3-(2,4-difluorophenyl)ureido]-4-(3,4-dimethoxyphenyl)quinoline] | 95.1% | – |
| Cc1cc(C)c2ncc(NC(=O)Nc3c(F)cc(F)cc3F)c(-c3ccccc3Cl)c2c1 [Example 62, 4-(2-chlorophenyl)-6,8-dimethyl-3-[3-(2,4,6-trifluorophenyl)ureido]quinoline] | 97.3% | – |
| Cc1cc(C)c2c(c1)c(-c1ccccc1Cl)c(NC(=O)Nc1ccc(F)cc1F)c[n+]2[O-] [Example 63, 4-(2-chlorophenyl)-3-[3-(2,4-difluorophenyl)ureido]-6,8-dimethylquinoline 1-oxide] | 94.4% | – |
